Earlier results as cited in patent US5891887A, “Use of [R-(Z)]-α-(methoxyimino)-α-(1-azabicyclo [2.2.2.]oct-3-yl)acetonitrile to reduce amyloid βA4 formation in alzheimer's disease” (priority 1994, dated 1999).

System: m1 and/or m3 receptor subtypes
Conditions: by activation of m1 and/or m3 receptor subtypes; literature

Production of non-amyloidogenic APP fragments	SMILES
enhance	CC(C[N+](C)(C)C)OC(N)=O (stereo not drawn) [bethanechol]
enhance	CCCCCCOc1nsnc1C1=CCCN(C)C1 [xanomeline]

SMILES	Production of non-amyloidogenic APP fragments
CC1OC2(CS1)CN1CCC2CC1 (stereo not drawn) [AF-102B]	enhance
